Source: patent publication US7465817B2, “Inositolized phospholipids” (Charite-Universitats Medizin Berlin, priority 2002, dated 2008)
pIC50: −log10 of the molar value. “Also recorded” adds a separate entry of the source. Read-outs that look alike come from different tables or passages of the source.

Experiments:
HaCaT cells [1] = test: cell proliferation ELISA, based on the incorporation of BrdU (Roche); parameters: species or system human; conditions: for pIC50: serum-free, text says μmolar range; for antiproliferative effect (in words): non cytotoxic concentrations
Method: (§1) The impact of glycosidation in the glycosidated phospholipid analogs was determined in serum-free cell cultures of human keratinocytes (HaCaT cells) and a squamous carcinoma cell line (SCC-25).
Ino-PAF as obtained in Example 1, Glc-PC and Glc-PAF (synthesis according to Mickeleit, M. et al., Angew. Chem. Int. Ed. Engl. 34:2667-2669 (1995) and 37:351-353 (1998)), and HePC (Hexadecylphosphocholine; commercially available as Miltefosin) were tested in the cell proliferation ELISA, BrdU (col.), Roche in an amount of from 0.6 to 5 μM. Prior to the assay the cells were kept for 2 h in serum-free keratinocyte medium. Assays were performed using 10.000 cells per test, at least quadruple testing.

HaCaT cells [2] = test: Viability determined by the LDH assay; assay type: cell-based; conditions: human
HaCaT cells [3] = test: cell matrix adhesion to ECM proteins (collagen IV, fibronectin, laminin), crystal violet; assay type: cell-based, human; conditions: for cell matrix adhesion after incubation (summary of advantages): HePC with delayed onset of action; for cell adhesion to extracellular matrix components fibronectin, laminin and collagen IV: treatment for 2 h
Method: In order to study the effect of Glc-PAF, Ino-PAF and Glc-PC (as specified in Example 2) on cell matrix adhesion HaCaT cells were rested 15 min at 4° C. and allowed to adhere to different ECM proteins (collagen IV, fibronectin and laminin) for 90 min at 37° C. The proteins of the extracellular matrix (ECM) were loaded onto the plastic surface by overnight treatment at 4° C. After fixing and staining in crystal violet, coloring was measured at 570 nm. Per test were used 50,000 cells, and quadruple testing was performed.

β1-Integrin = test: β1 integrin surface expression and clustering, immunofluorescence; assay type: cell-based, human; conditions: HaCaT cells
Method: HaCaT cells were treated with Ino-PAF (obtained as described in Example 1) for 48 h. For the immunofluorescence measurement, cells were treated with 5 μM Ino-PAF. The antibody utilized for detection was directed against the β1-Integrin, which is a surface receptor conferring cell-matrix-adhesion. Immunofluorescence analysis was performed on a collagen IV matrix. 5×10^4 cells/well were left to adhere for 90 min and stained with K20-FITC (anti-β1) or Phalloidin-TRITC respectively.

HaCaT cells [4] = test: cell proliferation ELISA, based on the incorporation of BrdU (Roche); conditions: Homo sapiens, Fischer et al. unpublished data, read-out: antiproliferative effect IC50
HaCaT cells [5] = conditions: literature, Schoen et al. 1996; cited from earlier work
SCC-25 cells = test: antiproliferative effect in squamous carcinoma cell line; assay type: cell-based; conditions: SCC-25 tumor cells
Method: as §1
In SCC-25 cells the antiproliferative effects of the glycosidated phospholipid analogs is much stronger.

[6] = low but antiproliferative concentrations; cited from earlier work
[7] = cited from earlier work
protein kinase C (PKC) = conditions: cited from earlier work

Compound	pIC50 (HaCaT cells [1]; Homo sapiens)	antiproliferative effect (in words) (HaCaT cells [1])	Viability (LD50) (HaCaT cells [2])	toxic effect LD50 (HaCaT cells [2])	cell matrix adhesion after incubation (summary of advantages) (HaCaT cells [3])	cell adhesion to extracellular matrix components fibronectin, laminin and collagen IV (HaCaT cells [3])	surface expression of integrins (β1-Integrin)	integrin clustering (β1-Integrin; 5 μM, 48 h)	pIC50 (HaCaT cells [4])	pIC50 (HaCaT cells [1])	cell matrix adhesion (HaCaT cells [5])	antiproliferative effect (SCC-25 cells)	apoptosis [6]	water solubility [7]	increase of PKC activity (protein kinase C (PKC); HaCaT cells, non-toxic concentrations)	inhibition of PKC activity in vitro (protein kinase C (PKC); high, toxic concentrations)
CCCCCCCCCCCCCCCCCCOC[C@H](COP(=O)([O-])OCC[N+](C)(C)C)OCCO[C@@H]1[C@@H](O)[C@H](O)[C@@H](O)[C@H](O)[C@@H]1O [Ino-PAF, inositol-C2-PAF]	5.74	strong antiproliferative effects; also recorded: stronger antiproliferative effects than the therapeutically used HePC	15	> 10 µM	increased	concentration-dependent increase; also recorded: increases cell adhesion	not affected	induces integrin clustering	5.77	–	–	–	–	–	–	–
CCCCCCCCCCCCCCCCOP(=O)([O-])OCC[N+](C)(C)C [HePC, hexadecyl-phosphocholine]	–	–	–	–	increased	–	–	–	–	5.35	reduce cell matrix adhesion	–	–	–	–	–
CCCCCCCCCCCCCCCCCCOC[C@H](COP(=O)([O-])OCC[N+](C)(C)C)O[C@H]1O[C@H](CO)[C@@H](O)[C@H](O)[C@H]1O [Glc-PAF, 1-O-octadecyl-2-O-α-D-gluco-pyranosyl-sn-glycero-3-phosphocholine]	5.30	inhibited cell proliferation	9	–	–	increases cell adhesion	–	–	–	–	–	sub-μmolar range	cause apoptosis	water-soluble	–	–
glyceroglucophosphocholine [Glc-PC]	–	strong antiproliferative effects; also recorded: inhibited cell proliferation	50	–	–	–	–	–	–	5.05	–	–	–	water-soluble	up to 70%	do not inhibit PKC activity
